What was measured:
Assay type in all cases: cell-based, human
[1] = test system: PHA blast cells from non-autologous healthy donor; experiment: Non-autologous specific cytotoxicity after allogeneic MLR (Calcein-AM); conditions: E/T ratio 90
Procedure: The PBMCs derived from a non-autologous healthy donor, prepared in item (2) of Example 6, were adjusted with 5HRPMI to 1×10^6 cells/mL, and seeded to a 6-well cell culture plate (manufactured by Corning Inc.) in a volume of 3 mL each. IL-2 was added thereto to a final concentration of 100 U/mL and phytohemaaglutinin (manufactured by Sigma, hereinafter referred to as PHA) was added thereto to a final concentration of 2 μg/mL, and the cells were cultured at 37° C. in 5% CO2. On day 4 of culture, 12 mL of 5HRPMI was added to the cell culture and IL-2 was added thereto to a final concentration of 100 U/mL. Thereafter, the cell culture was dispensed into a 6-well cell culture plate so as to have a volume of 5 mL/well. The culture was continued until day 7 of culture, thereby preparing PHA blast (blastogenic) cells.
Using the cells on day 7 of culture prepared in item (3) of Example 6, non-autologous specific cytotoxicity was assayed in the same manner as in item (5) of Example 2, except that the PHA blast cells which had been subjected to blastogenic cells in item (4) of Example 6 were used as the target cells which were incubated at 37° C. for 2 hours after addition of calcein-AM. These calcein-labeled target cells were mixed with a 30-fold amount of K562 cells, and the cytotoxicity was assayed using these target cells for determining the cytotoxicity. […]

[2] = test system: X-ray irradiated PBMCs derived from an allogeneic donor (stimulator cells); experiment: Allogeneic mixed lymphocyte reaction (MLR) using cultured lymphocytes (expansion fold)
[3] = test system: lymphocytes expanded from PBMC of cancer patient; experiment: Flow cytometry analysis of naive T-like cell phenotypes in expanded lymphocytes; conditions: Example 5
Procedure: The cells on days 10 and 14 of culture, prepared in item (3) of Example 2, were washed with DPBS containing 1% bovine serum albumin (BSA, manufactured by Sigma) (hereinafter referred to as 1% BSA/DPBS) or DPBS, and the cells were suspended in 1% BSA/DPBS, then FITC labeled mouse IgG1/RD1 labeled mouse IgG1/PC5 labeled mouse IgG1 (manufactured by Beckman Coulter Inc.) were added thereto as a negative control. Similarly, cells added with RD1 labeled mouse anti-human CD45RA antibody (manufactured by Beckman Coulter Inc.)/FITC labeled mouse anti-human CCR7 antibody (manufactured by R&D Systems), cells added with RD1 labeled mouse anti-human CD45RA antibody/FITC labeled mouse anti-human CD28 antibody (manufactured by eBioscience, Inc.)/PC5 labeled mouse anti-human CD27 antibody (manufactured by Beckman Coulter Inc.), and cells added with RD1 labeled mouse anti-human CD45RA antibody/FITC labeled mouse anti-human CCR7 antibody/PC5 labeled mouse anti-human CD62L antibody (manufactured by Beckman Coulter Inc.) were prepared. After addition of each antibody, incubation was carried out on ice for 30 minutes. After the incubation, the cells were washed with DPBS containing 0.1% BSA (hereinafter referred to as 0.1% BSA/DPBS), and suspended again in DPBS. The ratio of CCR7^+CD45RA^+ cells, CD27^+CD45RA^+ cells, CD28^+CD45RA^+ cells, CD62L^+CD45RA^+ cells, and CCR7^+CD62L^+CD45RA^+ cells of each cell population was calculated. […]
With respect to the cells on days 10 and 14 of culture, prepared in item (2) of Example 5, analysis of CCR7^+CD45RA^+ cells, CD62L^+CD45RA^+ cells, and CCR7^+CD62L^+CD45RA^+ cells was performed similarly to the method described in item (4) of Example 2.

PBMC of cancer patient = experiment: Expansion of lymphocytes from PBMC of cancer patients in plate/flask, OKT3 alone versus OKT3 and CH-296
Procedure: The OKT3 and the CH-296 were immobilized to the culture equipment used in the following experiment. That is, an ACD-A solution containing OKT3 (final concentration: 5 μg/mL) and CH-296 (final concentration: 25 μg/mL) was added to a 12-well cell culture plate (manufactured by Corning Inc.) in a volume of 0.45 mL/well each, and incubated at 37° C. for 5 hours in 5% CO2. On this occasion, a group wherein only OKT3 was immobilized was set. The ACD-A solution containing the OKT3 or the OKT3 and the CH-296 was removed from the culture equipment by aspiration just before use, washed twice with DPBS and once with the RPMI 1640 medium, and then subjected to each experiment.
The PBMC of 0.53×10^6 cells derived from the cancer patient and separated in item (1) of Example 2 was suspended in 5.3 mL of 0.6% plasma containing KBM551 or 0.2% HSA/GT-T503, and added to the plate immobilized with the OKT3 or the OKT3 and the CH-296 as prepared in item (1) of Example 5. IL-2 was added thereto so as to have a final concentration of 200 U/mL and the mixture was incubated at 37° C. under 5% CO2 (on day 0 of culture). On day 4 of culture, the cell solution in each well was suspended, and a part of the suspension was diluted 8.3-fold using 0.6% plasma-containing KBM551 or 0.2% HSA/GT-T503. Then, 7.8 mL of the diluted solution was transferred to a 25 cm^2-cell culture flask (manufactured by Corning Inc.) to which nothing was immobilized, and added with IL-2 to each final concentration of 200 U/mL. The culture was continued, and on day 7, a plasma free KBM551 or a 0.2% HSA/GT-T503 was added to the culture solution in each group in an equivalent amount to dilute two-fold, and then added with IL-2 so as to have each final concentration of 200 U/mL. On day 10 of culture, the cell solution in each group was diluted two-fold using a plasma free KBM551 or a 0.2% HSA/GT-T503, and 15.6 mL each of the diluted solution was transferred to a fresh standing 25 cm^2-cell culture flask to which nothing was immobilized. IL-2 was added thereto so as to have a final concentration of 200 U/mL in each group. On days 10 and 14 from the start of culture, the number of viable cells was counted by the trypan blue staining method and an expansion fold was calculated by comparing the number of counted cells with the number of cells at the start of culture.

[4] = PBMC of patient PT003, 0.2% HSA/GT-T503
[5] = PBMC of patient PT006 (breast cancer), KBM551
[6] = PBMC of patient PT008 (laryngeal cancer), KBM551
[7] = PBMC of patient PT012 (rectal cancer), KBM551

OKT3: Anti-CD3 monoclonal antibody (OKT3), immobilized alone to the culture equipment as initial stimulation
Cytotoxicity (%) ([1]; lymphocytes of patient PT012, 10 days of lymphocyte expansion): 15.2%
Cytotoxicity (%) ([1]; lymphocytes of patient PT012, 14 days of lymphocyte expansion): 27.6%
Expansion Rate (Fold) ([2]; lymphocytes of patient PT012, 10 days of lymphocyte expansion, responder:stimulator 1:0): x3.0 Fold
Expansion Rate (Fold) ([2]; lymphocytes of patient PT012, 10 days of lymphocyte expansion, responder:stimulator 1:1): x5.3 Fold
Expansion Rate (Fold) ([2]; lymphocytes of patient PT012, 14 days of lymphocyte expansion, responder:stimulator 1:0): x1.1 Fold
Expansion Rate (Fold) ([2]; lymphocytes of patient PT012, 14 days of lymphocyte expansion, responder:stimulator 1:1): x3.7 Fold
CCR7^+CD45RA^+ (%) On Day 10 from Start of Culture [3, 4]: 13.3%
CCR7^+CD62L^+CD45RA^+ (%) On Day 10 from Start of Culture [3, 4]: 13.1%
CD62L^+CD45RA^+ (%) On Day 10 from Start of Culture [3, 4]: 52.5%
CCR7^+CD45RA^+ (%) On Day 10 from Start of Culture ([3]; PBMC of patient PT003, KBM551): 5.4%
CCR7^+CD62L^+CD45RA^+ (%) On Day 10 from Start of Culture ([3]; PBMC of patient PT003, KBM551): 5.1%
CD62L^+CD45RA^+ (%) On Day 10 from Start of Culture ([3]; PBMC of patient PT003, KBM551): 50.9%
CCR7^+CD45RA^+ (%) On Day 10 from Start of Culture ([3]; PBMC of patient PT006, KBM551): 24.9%
CCR7^+CD45RA^+ (%) On Day 14 from Start of Culture ([3]; PBMC of patient PT006, KBM551): 36.9%
CCR7^+CD62L^+CD45RA^+ (%) On Day 10 from Start of Culture ([3]; PBMC of patient PT006, KBM551): 24.6%
CCR7^+CD62L^+CD45RA^+ (%) On Day 14 from Start of Culture ([3]; PBMC of patient PT006, KBM551): 36.7%
CD62L^+CD45RA^+ (%) On Day 10 from Start of Culture ([3]; PBMC of patient PT006, KBM551): 79.2%
CD62L^+CD45RA^+ (%) On Day 14 from Start of Culture ([3]; PBMC of patient PT006, KBM551): 75.7%
CCR7^+CD45RA^+ (%) On Day 10 from Start of Culture ([3]; PBMC of patient PT008, KBM551): 4.6%
CCR7^+CD45RA^+ (%) On Day 14 from Start of Culture ([3]; PBMC of patient PT008, KBM551): 4.2%
CCR7^+CD62L^+CD45RA^+ (%) On Day 10 from Start of Culture ([3]; PBMC of patient PT008, KBM551): 4.2%
CCR7^+CD62L^+CD45RA^+ (%) On Day 14 from Start of Culture ([3]; PBMC of patient PT008, KBM551): 3.9%
CD62L^+CD45RA^+ (%) On Day 10 from Start of Culture ([3]; PBMC of patient PT008, KBM551): 53.0%
CCR7^+CD45RA^+ (%) On Day 10 from Start of Culture ([3]; PBMC of patient PT012, KBM551): 19.4%
CCR7^+CD45RA^+ (%) On Day 14 from Start of Culture ([3]; PBMC of patient PT012, KBM551): 25.0%
CCR7^+CD62L^+CD45RA^+ (%) On Day 10 from Start of Culture ([3]; PBMC of patient PT012, KBM551): 17.1%
CCR7^+CD62L^+CD45RA^+ (%) On Day 14 from Start of Culture ([3]; PBMC of patient PT012, KBM551): 23.4%
CD62L^+CD45RA^+ (%) On Day 10 from Start of Culture ([3]; PBMC of patient PT012, KBM551): 56.0%
CD62L^+CD45RA^+ (%) On Day 14 from Start of Culture ([3]; PBMC of patient PT012, KBM551): 43.4%
Expansion Fold (Fold) On Day 10 from Start of Culture (PBMC of cancer patient; PBMC of patient PT003 (breast cancer), 0.2% HSA/GT-T503): ×200 Fold
Expansion Fold (Fold) On Day 10 from Start of Culture (PBMC of cancer patient; PBMC of patient PT003 (breast cancer), KBM551): ×193 Fold
Expansion Fold (Fold) On Day 10 from Start of Culture (PBMC of cancer patient; [5]): ×202 Fold
Expansion Fold (Fold) On Day 14 from Start of Culture (PBMC of cancer patient; [5]): ×382 Fold
Expansion Fold (Fold) On Day 10 from Start of Culture (PBMC of cancer patient; [6]): ×119 Fold
Expansion Fold (Fold) On Day 14 from Start of Culture (PBMC of cancer patient; [6]): ×292 Fold
Expansion Fold (Fold) On Day 10 from Start of Culture (PBMC of cancer patient; [7]): ×281 Fold
Expansion Fold (Fold) On Day 14 from Start of Culture (PBMC of cancer patient; [7]): ×723 Fold

— US20100247579A1, “THERAPEUTIC AGENT FOR CANCER” (priority 2007, published 2010)
